Experimental data as given in patent US20220395608A1, “WATER SOLUBLE BIOADHESIVES” (THE GOVERNING COUNCIL OF THE UNIVERSITY OF TORONTO, priority 2019, published 2022).

What was measured:
[1] = test system: A10 smooth muscle cell line; experiment: DNA mass quantification (Hoechst 33258) cytotoxicity assay, direct contact, ISO 10993-5; assay type: cell-based; conditions: A10 cells, relative to DMEM negative control, mean ± SD, n = 4
Method: (§1) Cytotoxicity Assays: In vitro cytotoxicity of adhesive formulations was assessed by direct contact with cells, according to ISO 10993-5 [35], which describes test methods to evaluate in vitro cytotoxicity of medical devices and, therefore, determine the in vitro biological response of mammalian cells using appropriate parameters. DNA mass quantification and Water-soluble tetrazolium (WST-1) assays were used to evaluate the toxicity of the formulations to a cell line. Negative and positive controls consisted of growth media with untreated cells and 5% Dimethyl sulfoxide (DMSO), respectively.
Cell Culture and Sample Preparation: A10 smooth muscle cell line (ATCC, CRL-1476™) were cultured in Dulbecco's modified Eagle's medium (DMEM), supplemented with 100 U mL^−1 penicillin/100 μg of streptomycin and 10% fetal bovine serum in a humidified atmosphere at 37° C. with 5% C02. The medium was changed every other day, allowing the cells to grow and reach confluency. When the cells reached 80-90% confluence, they were passaged following treatment with 0.25% trypsin-EDTA solution. This procedure was repeated until the cells entered their standard cellular cycle. Samples of adhesives were pre-conditioned in an incubator with DMEM for 24 h. […]
DNA mass quantification: At each time-point, cells were lysed with ice-cold lysis buffer (0.05% Triton X-100, 50 mM EDTA in PBS) for 1 h and tested for DNA assay as previously described. […] Then, 10 μL of cell lysate was added to the dye and read against a calf thymus DNA standard in a fluorescence microplate reader (BioTek Cytation 3, Biotek, Winooski, Vt., USA), with the excitation wavelength set at 360 nm and the emission wavelength observed at 460 nm.
(§2) Statistical analysis: Data was analyzed using the software PASW Statistics 21.0 (SPSS Inc, Chicago, Ill., USA). Two-Way analysis of variance (ANOVA) and Tukey's multiple comparison post-hoc tests will be used to determine a statistical significance between the groups for the DNA mass quantification and WST-1 assays. […]

[2] = test system: A10 smooth muscle cell line; experiment: WST-1 cell viability assay, direct contact, ISO 10993-5; assay type: cell-based; conditions: A10 cells, relative to DMEM negative control, mean ± SD, n = 4
Method: as §1
Cell Culture and Sample Preparation: A10 smooth muscle cell line (ATCC, CRL-1476™) were cultured in Dulbecco's modified Eagle's medium (DMEM), supplemented with 100 U mL^−1 penicillin/100 μg of streptomycin and 10% fetal bovine serum in a humidified atmosphere at 37° C. with 5% C02. The medium was changed every other day, allowing the cells to grow and reach confluency. When the cells reached 80-90% confluence, they were passaged following treatment with 0.25% trypsin-EDTA solution. This procedure was repeated until the cells entered their standard cellular cycle. Samples of adhesives were pre-conditioned in an incubator with DMEM for 24 h. Then, cells were seeded onto the samples, to which 200 μL of A10 suspension (approximately 25,000 cells/mL) was added. The seeded specimens were confined in the wells of a 96-well plate for 24 h, 72 h and 7 days.
WST-1 assay: For the WST assay, after removing media and rinsing with 1× with PBS, 200 μL of DMEM was added to each well. […] The absorbance was read using a multi-mode reader (BioTek Cytation 3, Biotek, Winooski, Vt., USA) at 450 nm, with a reference wavelength of 650 nm. […]
as §2

Structure (SMILES): C[S+](C)[O-] [5% DMSO, Dimethyl sulfoxide]
- Relative DNA mass (%) ([1]; 24 h): 15.3 ± 5.3%
- Relative DNA mass (%) ([1]; 72 h): 1.3 ± 1.9%
- Relative DNA mass (%) ([1]; 7 d): 1.4 ± 1.6%
- Relative Cell viability (%) ([2]; WST-1, 24 h): 18.4 ± 0.9%
- Relative Cell viability (%) ([2]; WST-1, 72 h): 4.4 ± 1.1%
- Relative Cell viability (%) ([2]; WST-1, 7 d): 1.0 ± 0.5%
